Columns and labels:
[1] = test system: normal mesangial cell layers; assay: mRNA levels of selected molecules in normal mesangial cell layers exposed to PPS (reverse transcription); type: cell-based; settings: PPS 100 μg/ml; day 1 compared with days 3 and 5
From the text: The control was β-actin, which was unchanged, consistent with the absence of proliferation in the treated cells.

normal mesangial cells [2] = assay: Cell growth (cell counts) in normal mesangial cells; type: cell-based
Method: (§1) Normal mesangial cells (8) were plated in basal medium plus 20% fetal bovine serum (Gibco, Grand Island, N.Y.) in 24-well plates (Nunc, PGC Scientific Corp., Gaithersburg, Md.) at a density of 2−2.5×10^4 cells/well. At 24 hours the medium was discarded, cells were washed twice with PBS and incubated for 24-72 h in serum-free medium with 0.1% bovine serum albumin (RIA grade, Sicjma). The medium was replaced with fresh basal medium plus 20% fetal bovine serum with or without 5-100 μg/ml of PPS or compared to standard heparin (100 μg/ml). Cells of duplicate wells were trypsinized and counted in an Elzone® cell counter (Particle Data Inc., Elmhurst, Ill.) at days +3 and +5. In parallel wells, thymidine incorporation was determined by adding 1 μCi/well of [^3H] thymidine ([methyl-^3H] thymidine); 2.0 Ci/mM; DuPont NEN, Boston, Mass.). Counts were determined at day 1 or at day 3.

GH transgenic mice = assay: GH transgenic mice, oral PPS sodium in drinking water; glomerular collagen by competitive PCR; type: in vivo, mouse; settings: about 100 mg/kg, 10-12 weeks
Method: Six GH mice were treated for 10-12 weeks with oral PPS sodium (Elmiron®, Baker Norton Pharmaceuticals, Inc.) in their drinking water and six age-matched GH mice received tap water for the same duration. The amount of PPS sodium in the drinking water was about 100 mg/kg of animal body weight.
Glomeruli were isolated by microdissection in the presence of RNase inhibitors. The left kidney was perfused with saline followed by a collagenase solution containing soluble RNase inhibitors. The lower pole was removed prior to collagenase perfusion and snap frozen on dry ice for zymography. […]
Primers for mouse α1IV and α1I collagen, α smooth muscle cell actin, β-actin, laminin B1, tenascin, 92 kDa metalloproteinase and 72 kDa metalloproteinase mRNAs, and for bovine growth hormone genomic DNA, were synthesized on a PCR-Mate (Applied Biosystems, Foster City, Calif.). […] Primer specificity for mRNA was determined by omitting the reverse transcriptase enzyme. […] This permitted a rapid, non-quantitative assessment of mRNA levels. Thereafter, competitive PCR assays were utilized to measure α1IV collagen (and the ratio of α1IV collagen to GAPDH enzyme was calculated to normalize the data between animals), PDGF-B, α smooth muscle cell actin, β-actin, and laminin B1 cDNAs by constructing a cDNA mutant for each molecule, with a small internal deletion or a new restriction enzyme site. […]

smooth muscle cell = settings: Paul et al. 1987; Wardle; cited from earlier work
[3] = Wardle 1992; cited from earlier work
Watanabe rabbits [4] = assay: Watanabe rabbits Study B: oral PPS in drinking water, aortic intima/media histology; type: in vivo, rabbit; settings: oral about 30 mg/kg/day in drinking water
Method: Twenty Watanabe rabbits were divided into four groups of five each, Groups A through D. All of the rabbits were fed the same high cholesterol diet (0.5% cholesterol). The animals of Groups A and B were given tap water to drink, while the animals of Groups C and D were given tap water containing 0.5 mg/mL of PPS sodium (Elmiron®). Based on observations of pre-study water consumption by the animals, the total daily dose of PPS sodium consumed by each animal in the treatment groups was about 30 mg/kg.
The animals of Groups A and C were euthanized and necropsied on day 50 of the study and their aortae examined.
The rabbits of Groups B and D were euthanized and necropsied on day 64 of the study. The aortae of these groups were examined histologically and the respective cross-sectional areas of the intimal and medial layers in various aortal branches were measured.

[5] = Paul et al. 1987; Wardle; cited from earlier work
normal mesangial cells [6] = assay: DNA synthesis by [3H]thymidine incorporation in normal mesangial cells; type: cell-based; settings: day one (24 hours); PPS 5-100 μg/ml; 20% fetal bovine serum
Method: as §1

Watanabe rabbits [7] = assay: Watanabe rabbits Study A: subcutaneous PPS, morphometry of aortic lesions; type: in vivo, rabbit
Method: Twelve Watanabe rabbits were divided into two groups of six each (Group A and Group B) and fed a high cholesterol diet (0.5% cholesterol). The animals of Group A were treated daily with normal saline subcutaneously, while the animals of Group B were treated daily with 10 mg/kg of PPS sodium (Elmiron®) subcutaneously.
Four of the PPS-treated animals (Group B) died prior to completion of the study, one on day 22 and three between day 80 and day 86. On day 89, the animals of Group A and the two remaining animals of Group B were euthanized and necropsied and their tissues evaluated, particularly sections from different major branches of the aorta.

[8] = 10 mg/kg/day s.c., day 89, 0.5% cholesterol diet
[9] = PPS vs control, 10 mg/kg/day s.c., day 89
[10] = all aortal cross-sections examined, 10 mg/kg/day s.c.

## Pentosan polysulfate [PPS]
[1]
  92 kDa enzyme activity increase: more than 50%
  TGF-β mRNA reduction: 50%
  type I collagen mRNA: substantially decreased
  type IV collagen mRNA: no changes
  β-actin mRNA (control): unchanged
Normal mesangial cells [2]; PPS 100 μg/ml vs heparin 100 μg/ml, three and five days
  potency relative to native heparin on a molar basis (cell growth inhibition): roughly twice
Normal mesangial cells [2]; day three, PPS 5-100 μg/ml, 20% fetal bovine serum
  concentration of maximum inhibitory response (cell number): 25 µg/mL
GH transgenic mice
  mean type IV collagen/GAPDH ratio in glomeruli relative to untreated (control) group: less than half
  scarring-type collagen present in glomeruli vs untreated animals (confirmed by histology and immunofluorescent microscopy): considerably less
Smooth muscle cell
  smooth muscle cell proliferation: inhibits
[3]
  anticoagulant potency relative to heparin: about one-fifteenth
  partial thromboplastin time: prolongs
Watanabe rabbits [4]; day 50, Group C vs Group A
  atherosclerotic plaque development in intima, visual, vs control: less atherosclerotic plaque development
Watanabe rabbits [4]; day 64, Group D vs Group B
  mean intimal cross-sectional area in each aortal branch vs untreated: substantially less
  ratio of intima to medial areas in every aortal branch vs untreated: lower
[5]
  hyperlipidemia: decreases
Normal mesangial cells [6]
  concentration at which the maximum dose-response plateaued (DNA synthesis, tritiated thymidine incorporation): 50 µg/mL
Watanabe rabbits [7]; 10 mg/kg daily subcutaneously, group of six, one on day 22, three between day 80 and 86, high cholesterol diet
  treated animals that died prior to completion of the study: Four
Watanabe rabbits [7]; [8]
  Plaque area, Abdominal Aorta: 0.04 cm^2
  Plaque area, Ascending Aorta: 0.59 cm^2
  Smooth Muscle Layer area, Abdominal Aorta: 0.303 cm^2
  Smooth Muscle Layer area, Ascending Aorta: 0.243 cm^2
  Smooth Muscle Layer area, Thoracic Aorta: 0.334 cm^2
  Smooth Muscle/Plaque, Abdominal Aorta: 7.58
  Smooth Muscle/Plaque, Ascending Aorta: 4.12
  Smooth Muscle/Plaque, Thoracic Aorta: 1.184
Watanabe rabbits [7]; 10 mg/kg/day s.c., high cholesterol diet
  plaque in cross-section of abdominal aorta (FIG. 11 photograph): almost no sign of plaque
Watanabe rabbits [7]; [9]
  Fold decrease in Plaque Size, Abdominal Aorta: 10.2×
  Fold decrease in Plaque Size, Ascending Aorta: 6.8×
  Fold decrease in Plaque Size, Thoracic Aorta: 2.5×
Watanabe rabbits [7]; [10]
  plaque deposits in comparison with control rabbits: much smaller
  ratio of smooth muscle layer to plaque, times higher than control rabbits: ≤ 6.8 times

From patent US20010005720A1, “METHOD OF TREATING CHRONIC P[…] SCARRING DISEASES” (U.S.A. AS REPRESENTED BY THE SECRETARY DEPARTMENT OF HEALTH …, priority 1995, published 2001)
